Assay [1] has as its target T1, human GRIN1 (variant NR1-3) and GRIN2D expressed in HEK293 cells (Homo sapiens, UniProt O15399).
T1 construct: GenScript (GRIN2D synthesis) SC115601; host or cells: HEK293
The assay is described as follows: GluN2D PAM CIQ fluorescence assay (Fluo-8 calcium, FDSS 6000). The format is cell-based. The following applies: relative to CIQ (100 uM) = 100%, read-out: NR2D Percent CIQ Avg Max Measured Effect. The procedure: GluN2D PAM CIO Flourescence AssayHEK293 cells were transfected to express human GRIN1 (variant NR1-3, Origene, SKU #: SC115601, Rockville, Md.) and GRIN2D (NCBI locus NM_000836, sequence optimized and synthesized by GenScript) and grown as an adherent monolayer at 37° C., 5% CO2 in DMEM/Ham's F12+10% FBS (Hyclone SH3007.03T in the presence of 2.5 mM ARL-15896 (AdooQ Bioscience, Irvine Calif.). To prepare the cells for an experiment, they were rinsed with Dulbecco's PBS (Ca^2+ and Mg^2+ free) and detached from the flask with TrypLE™ Express (Life Technologies, Carlsbad, Calif.) using the manufacturer's recommended methods. Cells collected from the flask were washed twice in Ca^2+/Mg^2+-free Hanks Balanced Salt Solution+20 mM HEPES (HBSS), and counted and assessed for viability with trypan blue. Washed cells were then dye-loaded by resuspending in Fluo-8/AM calcium sensitive dye plus Component B (AAT Bioquest, Sunnyvale, Calif.) diluted in HBSS. To allow cells to take up fluo-8 dye, they were incubated in the dark for 15 min at 37° C., followed by 30 min at 22-25° C. After dye-loading, cells were washed and resuspended in HBSS and plated in 384-well plates (Falcon 353962; Corning, Big Flats, N.Y.) at 20,000-30,000 cells/well in a final volume of 25 μl/well. The cell plates were centrifuged at 200×g, for 2 minutes at 21° C., to create a monolayer of cells at the bottom of the wells.
To initiate an assay, 10 μl of test compound or buffer was added to each well of the cell plate and pre-incubated for 10 minutes in the dark. After 10 minutes, the cell plate was placed in a FDSS 6000 plate reader (Hamamatsu Photonics, Middlesex, N.J.); baseline fluorescence readings were collected for 20 seconds. Next, 25 μl of agonist solution (3 μM glutamate, 3 μM glycine, and 1 mM Ca^2+ in HBSS) was added and the change in fluorescence was recorded for 3 minutes.
Results were calculated by comparing the effects of test compounds to that of the literature standard GluN2C/D PAM CIQ (100 uM). The increase in fluorescence in the presence of CIQ minus the increase induced by glutamate+glycine alone was set to 100%. Responses induced by compounds that were larger than gain the presence of the standard concentration of CIQ were greater than 100% and lesser responses were less than 100%.

For assay [2], the target named is T2, human GRIN1 (transcript variant NR1-3) and GRIN2D expressed in Xenopus oocytes (Homo sapiens, UniProt O15399).
T2 construct: GenScript (GRIN2D synthesis) SC115601; host or cells: Xenopus oocytes injected with cRNA (1 GluN1 : 2 GluN2)
T2 sequence (O15399 28-1336, other chains not shown): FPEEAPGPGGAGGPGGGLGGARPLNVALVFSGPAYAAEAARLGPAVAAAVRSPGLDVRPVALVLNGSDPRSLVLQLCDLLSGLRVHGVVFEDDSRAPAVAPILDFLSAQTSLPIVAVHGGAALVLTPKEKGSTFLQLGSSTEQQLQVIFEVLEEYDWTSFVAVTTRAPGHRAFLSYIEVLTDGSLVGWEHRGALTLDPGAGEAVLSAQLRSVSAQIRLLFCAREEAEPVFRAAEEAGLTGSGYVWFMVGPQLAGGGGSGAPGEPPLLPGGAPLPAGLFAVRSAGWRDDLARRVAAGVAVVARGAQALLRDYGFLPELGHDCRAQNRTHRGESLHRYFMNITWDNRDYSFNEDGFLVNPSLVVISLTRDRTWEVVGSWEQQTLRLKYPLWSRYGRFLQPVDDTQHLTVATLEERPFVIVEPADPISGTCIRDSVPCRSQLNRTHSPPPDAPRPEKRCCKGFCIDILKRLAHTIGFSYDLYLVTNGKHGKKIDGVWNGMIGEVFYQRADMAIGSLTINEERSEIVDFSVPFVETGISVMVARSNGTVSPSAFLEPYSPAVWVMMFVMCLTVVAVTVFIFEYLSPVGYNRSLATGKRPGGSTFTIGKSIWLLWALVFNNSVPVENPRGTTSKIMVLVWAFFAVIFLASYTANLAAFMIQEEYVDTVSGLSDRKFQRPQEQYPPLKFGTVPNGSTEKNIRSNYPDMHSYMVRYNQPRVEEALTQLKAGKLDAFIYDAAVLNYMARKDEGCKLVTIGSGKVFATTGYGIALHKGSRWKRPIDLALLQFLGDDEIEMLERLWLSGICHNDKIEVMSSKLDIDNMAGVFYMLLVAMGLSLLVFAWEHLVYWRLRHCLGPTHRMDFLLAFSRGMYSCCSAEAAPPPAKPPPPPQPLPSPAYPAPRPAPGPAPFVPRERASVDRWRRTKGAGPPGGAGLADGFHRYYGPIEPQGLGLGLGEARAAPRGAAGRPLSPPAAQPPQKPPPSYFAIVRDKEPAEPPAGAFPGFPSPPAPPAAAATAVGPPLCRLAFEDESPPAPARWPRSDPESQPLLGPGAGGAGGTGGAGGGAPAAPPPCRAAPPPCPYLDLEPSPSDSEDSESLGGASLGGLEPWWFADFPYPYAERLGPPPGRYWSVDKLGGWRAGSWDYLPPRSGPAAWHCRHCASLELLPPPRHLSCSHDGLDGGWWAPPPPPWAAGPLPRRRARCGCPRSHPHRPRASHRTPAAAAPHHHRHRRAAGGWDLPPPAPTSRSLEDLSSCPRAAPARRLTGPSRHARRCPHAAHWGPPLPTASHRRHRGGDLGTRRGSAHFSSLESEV
The assay is described as follows: NR2D oocyte potentiation assay (two-electrode voltage clamp). The class given is cell-based. The conditions noted are these: 10 uM test compound; glutamate and glycine 10 μM each; holding potential −40 mV. The gist of the method:
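Xenopus oocytes were defolliculated with collagenase, then injected with 50 nL of cRNA encoding human GluN1 (NR1-3 variant) and GluN2D mixed 1:2 and kept 72 h at 16° C. Two-electrode voltage clamp at −40 mV recorded currents; after 10 μM glutamate plus 10 μM glycine reached plateau, test compound was added until a new plateau formed.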
Background: In two-electrode clamp one electrode senses voltage and the other passes current.

T1 sequence (O15399 28-1336, other chains not shown): as above

Take `CC(C)(C)c1ncc(-c2nc3ccccn3c(=O)c2C#N)cn1` [Example 20, 2-(2-(tert-butyl)pyrimidin-5-yl)-4-oxo-4H-pyrido[1,2-a]pyrimidine-3-carbonitrile]: the Emax in assay [1] was 100 to 200%. In addition, in assay [2], the activation at 10 µM was 100 to 500%.
For `CC(C)(C)c1ccc(-c2nc3n(c(=N)c2C#N)CCCS3)cc1` [Example 36, 8-(4-(tert-butyl)phenyl)-6-imino-3,4-dihydro-2H,6H-pyrimido[2,1-b][1,3]thiazine-7-carbonitrile] the same measures were 100 to 200% and 500 to 1000%.
For `C/N=c1/c(C#N)c(-c2ccc(C(C)(C)C)cc2)nc2n1CCCS2` [Example 37, (Z)-8-(4-(tert-butyl)phenyl)-6-(methylimino)-3,4-dihydro-2H,6H-pyrimido[2,1-b][1,3]thiazine-7-carbonitrile] the same measures were more than 200% and 500 to 1000%.
For `CC(C)(C)c1ccc(-c2nc3n(c(=N)c2C#N)CCCS3)cn1` [Example 38, 8-(6-(tert-butyl)pyridin-3-yl)-6-imino-3,4-dihydro-2H,6H-pyrimido[2,1-b][1,3]thiazine-7-carbonitrile], in that order: 100 to 200% and more than 1000%.
Take `CC1CSc2nc(-c3cnc(C(C)(C)C)nc3)c(C#N)c(=N)n2C1` (centres unmarked) [Example 39, 8-(2-(tert-butyl)pyrimidin-5-yl)-6-imino-3-methyl-3,4-dihydro-2H,6H-pyrimido[2,1-b][1,3]thiazine-7-carbonitrile]: in assay [1], the Emax is more than 200%. The activation at 10 µM in assay [2] was more than 1000%.
Regarding `CN(C)C(=O)/N=c1/c(C#N)c(-c2ccc(C(C)(C)C)cc2)nc2n1CCCS2` [Example 42, (Z)-3-(8-(4-(tert-butyl)phenyl)-7-cyano-3,4-dihydro-2H,6H-pyrimido[2,1-b][1,3]thiazin-6-ylidene)-1,1-dimethylurea], the Emax in assay [1] was 100 to 200%. Moreover, in assay [2], the activation at 10 µM was 100 to 500%.
For `CC(C)(C)c1ccc(-c2nc3n(/c(=N\C(=O)C(F)(F)F)c2C#N)CCCS3)cc1` [Example 43, (Z)—N-(8-(4-(tert-butyl)phenyl)-7-cyano-3,4-dihydro-2H,6H-pyrimido[2,1-b][1,3]thiazin-6-ylidene)-2,2,2-trifluoroacetamide] the same measures were 10 to 50% and 100 to 500%.
As for `C[C@H]1CSc2nc(-c3ccc(C(C)(C)C)nc3)c(C#N)c(=O)n2C1` [Example 44, (R)-8-(6-(tert-butyl)pyridin-3-yl)-3-methyl-6-oxo-3,4-dihydro-2H,6H-pyrimido[2,1-b][1,3]thiazine-7-carbonitrile], the Emax in assay [1] was in the range of 100 to 200%. Further, the activation at 10 µM in assay [2] fell in the range of 100 to 500%.
Consider `C[C@@H]1CSc2nc(-c3ccc(C(C)(C)C)nc3)c(C#N)c(=O)n2C1` [Example 45, (S)-8-(6-(tert-butyl)pyridin-3-yl)-3-methyl-6-oxo-3,4-dihydro-2H,6H-pyrimido[2,1-b][1,3]thiazine-7-carbonitrile], for which, in assay [1], the Emax is more than 200%. Also, the activation at 10 µM in assay [2] is more than 1000%.
For `N#Cc1c(-c2ccc(C(F)(F)F)nc2)nc2n(c1=O)CCCS2` [Example 48, 6-oxo-8-(6-(trifluoromethyl)pyridin-3-yl)-3,4-dihydro-2H,6H-pyrimido[2,1-b][1,3]thiazine-7-carbonitrile], the Emax in assay [1] lay within 10 to 50%. Also, the activation at 10 µM in assay [2] is less than 10%.
For `CC1CSc2nc(-c3cnc(C(C)(C)C)nc3)c(C#N)c(=O)n2C1` (centres unmarked) [Example 49, 8-(2-(tert-butyl)pyrimidin-5-yl)-3-methyl-6-oxo-3,4-dihydro-2H,6H-pyrimido[2,1-b][1,3]thiazine-7-carbonitrile] the same measures were more than 200% and more than 1000%.
`CC1CCSc2nc(-c3ccc(C(C)(C)C)nc3)c(C#N)c(=O)n21` (centres unmarked) [Example 50, 8-(6-(tert-butyl)pyridin-3-yl)-4-methyl-6-oxo-3,4-dihydro-2H,6H-pyrimido[2,1-b][1,3]thiazine-7-carbonitrile]: the Emax in assay [1] fell in the range of 100 to 200%. The activation at 10 µM in assay [2] was in the range of 100 to 500%.
In the case of `CC1CSc2nc(-c3ccc(C(C)(C)C)nc3)c(C#N)c(=N)n2C1` (centres unmarked) [Example 63, 8-(6-(tert-butyl)pyridin-3-yl)-6-imino-3-methyl-3,4-dihydro-2H,6H-pyrimido[2,1-b][1,3]thiazine-7-carbonitrile], the Emax in assay [1] is more than 200%. In addition, the activation at 10 µM in assay [2] was more than 1000%.
For the molecule `C[C@H]1CSc2nc(-c3ccc(C(C)(C)C)nc3)c(C#N)c(=N)n2C1` [Example 64, (R)-8-(6-(tert-butyl)pyridin-3-yl)-6-imino-3-methyl-3,4-dihydro-2H,6H-pyrimido[2,1-b][1,3]thiazine-7-carbonitrile], the Emax in assay [1] lay within 100 to 200%. Besides, the activation at 10 µM in assay [2] was 100 to 500%.
For `C[C@@H]1CSc2nc(-c3ccc(C(C)(C)C)nc3)c(C#N)c(=N)n2C1` [Example 65, (S)-8-(6-(tert-butyl)pyridin-3-yl)-6-imino-3-methyl-3,4-dihydro-2H,6H-pyrimido[2,1-b][1,3]thiazine-7-carbonitrile], in that order: more than 200% and more than 1000%.
For `CC1CSc2nc(-c3ccc(N(C)C)nc3)c(C#N)c(=O)n2C1` (centres unmarked) [Example 67, 8-[6-(dimethylamino)pyridin-3-yl]-3-methyl-6-oxo-2H,3H,4H,6H-pyrimido[2,1-b][1,3]thiazine-7-carbonitrile] the same measures were 50 to 100% and 100 to 500%.
As for `CC(C)(C)c1ccc(-c2nc3n(c(=O)c2C#N)CCCS3)s1` [Example 177, 8-(5-tert-butylthiophen-2-yl)-6-oxo-2H,3H,4H,6H-pyrimido[2,1-b][1,3]thiazine-7-carbonitrile], the Emax in assay [1] lay within 100 to 200%.
On the same count and under the same terms, as for `Cc1ccc(-c2nc3n(c(=O)c2C#N)CCCS3)cc1` [Example 185, 8-(4-methylphenyl)-6-oxo-2H,3H,4H,6H-pyrimido[2,1-b][1,3]thiazine-7-carbonitrile], the figure is 50 to 100%; as for `COc1ccc(-c2nc3n(c(=O)c2C#N)CCCS3)c(OC)c1` [Example 186, 8-(2,4-dimethoxyphenyl)-6-oxo-2H,3H,4H,6H-pyrimido[2,1-b][1,3]thiazine-7-carbonitrile], 10 to 50%.
Still for that read-out and setting: as for `COc1ccccc1-c1nc2n(c(=O)c1C#N)CCCS2` [Example 188, 8-(2-methoxyphenyl)-6-oxo-2H,3H,4H,6H-pyrimido[2,1-b][1,3]thiazine-7-carbonitrile], the figure is 10 to 50%.
On to `COc1cc(C(C)(C)C)ccc1-c1nc2n(c(=O)c1C#N)CCCS2` [Example 193, 8-(4-tert-butyl-2-methoxyphenyl)-6-oxo-2H,3H,4H,6H-pyrimido[2,1-b][1,3]thiazine-7-carbonitrile], for which, in assay [2], the activation at 10 µM was 100 to 500%.
Regarding `N#Cc1c(-c2ccc(-c3ccccc3)cc2F)nc2n(c1=O)CCCS2` [Example 194, 3,4-dihydro-8-(2-fluoro-4-phenylphenyl)-6-oxo-2H,6H-pyrimido[2,1-b][1,3]thiazine-7-carbonitrile], the Emax in assay [1] lay in the range of 10 to 50%.
With `CC(C)(C)c1ccc(-c2nc3n(c(=O)c2C#N)CC2(CC2)CS3)cc1` [Example 203, 8′-(4-tert-butylphenyl)-6′-oxo-4′,6′-dihydro-2′H-spiro[cyclopropane-1,3′-pyrimido[2,1-b][1,3]thiazine]-7′-carbonitrile], the Emax in assay [1] lay within 100 to 200%.
On the same count and under the same terms, as for `CSc1ccc(-c2nc3n(c(=O)c2C#N)CCS3)cc1` [Example 207, 7-[4-(methylsulfanyl)phenyl]-5-oxo-2H,3H,5H-[1,3]thiazolo[3,2-a]pyrimidine-6-carbonitrile], the figure is 100 to 200%.
On the same count and under the same terms, as for `CC(C)(C)c1ccc(-c2nc3scc(N)n3c(=O)c2C#N)cc1` [Example 210, 3-amino-7-(4-tert-butylphenyl)-5-oxo-5H-thiazolo[3,2-a]pyrimidine-6-carbonitrile], the figure is 10 to 50%.

The record behind these values is patent US11807650B2, “NMDA receptor modulators and uses thereof” (Novartis AG, priority 2016, dated 2023).
